This note sets out measurements from patent US11453660B2, “Androgen receptor and glucocorticoid receptor modulators” (ONCOSTELLAE, S.L., priority 2017, dated 2022).

Each structure is given as a SMILES string.

The target of test [1] is T1, human androgen receptor (Homo sapiens, UniProt P10275, T878A).
T1 construct: endogenously expressed human androgen receptor using the LnCap prostate cancer cell line; endogenous in cells; host or cells: LNCaP prostate cancer cell line (whole cells)
T1 sequence (P10275 1-920 T878A): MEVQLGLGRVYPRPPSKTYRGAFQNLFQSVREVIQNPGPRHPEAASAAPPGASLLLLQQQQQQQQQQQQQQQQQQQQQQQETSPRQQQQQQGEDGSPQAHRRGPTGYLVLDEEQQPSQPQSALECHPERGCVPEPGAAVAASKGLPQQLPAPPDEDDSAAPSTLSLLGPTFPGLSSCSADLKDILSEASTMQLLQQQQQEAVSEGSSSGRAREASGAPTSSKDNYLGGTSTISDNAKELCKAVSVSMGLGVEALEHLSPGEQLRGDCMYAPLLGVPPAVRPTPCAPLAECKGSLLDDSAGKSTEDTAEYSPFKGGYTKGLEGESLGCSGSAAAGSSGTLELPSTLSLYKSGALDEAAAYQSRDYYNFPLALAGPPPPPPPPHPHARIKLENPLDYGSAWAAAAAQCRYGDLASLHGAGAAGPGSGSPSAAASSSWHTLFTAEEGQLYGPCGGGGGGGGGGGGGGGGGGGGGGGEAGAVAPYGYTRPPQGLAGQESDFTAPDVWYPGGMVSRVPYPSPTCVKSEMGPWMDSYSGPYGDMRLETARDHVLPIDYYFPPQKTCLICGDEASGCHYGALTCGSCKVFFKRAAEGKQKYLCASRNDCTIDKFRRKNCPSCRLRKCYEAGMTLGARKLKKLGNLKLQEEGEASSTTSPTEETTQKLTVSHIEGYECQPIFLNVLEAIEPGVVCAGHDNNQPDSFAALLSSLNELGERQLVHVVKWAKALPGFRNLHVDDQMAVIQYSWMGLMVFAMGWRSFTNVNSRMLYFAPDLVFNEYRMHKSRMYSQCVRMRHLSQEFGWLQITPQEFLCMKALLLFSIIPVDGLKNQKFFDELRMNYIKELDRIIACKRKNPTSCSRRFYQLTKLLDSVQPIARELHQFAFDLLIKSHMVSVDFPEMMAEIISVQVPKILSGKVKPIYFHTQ
Kind of test: Human Androgen Receptor Binding (radioligand binding, LnCap prostate cancer cell line). The following applies: LnCap cells, displacement of [^3H]-methyltrienolone, 2 hours at 37° C.; read-out: AR LNCaP. The method, then: Human Androgen Receptor Binding
Radioligand binding studies were carried out on endogenously expressed human androgen receptor using the LnCap prostate cancer cell line. The test is based on measuring radioactively labelled AR ligand [^3H]-methyltrienolone that gets displaced by increasing concentrations of test compound. The test is performed in 96-well plates (Falcon, #353072). Positive and negative controls are also required in each analyzed plate to evaluate the total and non-specific binding binding of the radioligand to the receptor. Cells (60000 per well) were incubated for 24 hours before executing the experiment at 37° C. and in a 5% CO2 atmosphere. Medium was replaced by assay buffer (RPMI-640 (ATCC #30-2001) supplemented with 0.1% bovine serum albumin (Sigma #8806-56) and Triamcinolone acetonide (Sigma #T6501)). The compounds at the desired concentrations and [^3H]methyltrienolone (Perkin Elmer #NET590) were added to the wells.
In order to obtain a dose-response curve and calculate the potency of inhibition (expressed as IC50) for AR, a series of 1:10 dilutions in test in 1× buffer from 10 μM to 0.1 nM for each compound was carried out.
Cells were incubated for 2 hours at 37° C. in a 5% CO2 atmosphere and then washed twice with ice-cold HBSS. Then cells were lysed with solubilization buffer (Hank's Balanced Salt Solution (HBSS, Sigma #H6648), 0.5% Sodium dodecyl sulfate 0.5% (SDS, Sigma #L7390-500G, Lote: 078K0102) and 20% Glycerol (Sigma Aldrich, #G2025) for 30 minutes at RT. 75 μL aliquots were taken from each well and transferred to a 96-well flexiplate (Perkin Elmer #1450-401) and mixed with 100 μL of scintillation cocktail (Optiphase supermix, PerkinElmer, #1200-439). Plates are shaken for 60 minutes and radioactivity was measured in a beta scintillation counter (Microbeta Trilux, Perkin Elmer).

The target of test [2] is T2, Human Glucocorticoid Receptor (Homo sapiens, UniProt P04150).
T2 construct: endogenous in cells; host or cells: cytosol from IM-9 cell line
T2 sequence (P04150 1-777): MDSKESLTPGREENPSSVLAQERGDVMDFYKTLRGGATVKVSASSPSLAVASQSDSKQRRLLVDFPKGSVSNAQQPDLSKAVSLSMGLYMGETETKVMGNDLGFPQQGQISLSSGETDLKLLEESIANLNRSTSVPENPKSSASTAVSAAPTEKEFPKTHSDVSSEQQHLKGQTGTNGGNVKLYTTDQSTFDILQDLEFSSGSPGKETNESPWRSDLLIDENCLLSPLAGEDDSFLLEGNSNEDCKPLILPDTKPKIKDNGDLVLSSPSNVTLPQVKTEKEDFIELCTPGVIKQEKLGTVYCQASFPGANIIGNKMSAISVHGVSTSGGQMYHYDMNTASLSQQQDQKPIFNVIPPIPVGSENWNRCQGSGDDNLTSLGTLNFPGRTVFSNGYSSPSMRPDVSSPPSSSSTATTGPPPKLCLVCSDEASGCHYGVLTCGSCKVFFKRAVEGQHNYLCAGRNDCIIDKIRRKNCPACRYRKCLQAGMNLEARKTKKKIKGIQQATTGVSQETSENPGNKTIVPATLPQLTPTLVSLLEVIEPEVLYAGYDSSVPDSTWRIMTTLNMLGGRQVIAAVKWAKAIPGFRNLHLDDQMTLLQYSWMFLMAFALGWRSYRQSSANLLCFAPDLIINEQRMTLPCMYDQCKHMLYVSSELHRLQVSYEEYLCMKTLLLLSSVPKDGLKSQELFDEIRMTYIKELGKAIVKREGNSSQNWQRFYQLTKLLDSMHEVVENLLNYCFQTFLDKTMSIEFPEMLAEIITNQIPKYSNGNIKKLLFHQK
As to the kind of experiment: Competition Binding in IM-9 Human Glucocorticoid Receptor (GR IM-9). Particulars: cytosol from IM-9 cell line, 1.5 nM [3H]-Dexamethasone, 4° C. for 6 hours. A digest of the protocol: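 Radioligand competition using 100 μg IM-9 cell cytosol and 1.5 nM [3H]-dexamethasone, incubated 6 h at 4° C in TES/molybdate buffer, pH 7.4. Filtration on PEI-treated GF/B filters, scintillation counting; nonspecific binding defined with 10 μM triamcinolone.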

Turning to `COC(=O)C1=C(C2CC2)NC(C)=C(C(C)=O)C1c1csc2c(C(=O)O)cccc12` (centres unmarked) [Example J30, 3-(3-Acetyl-6-cyclopropyl-5-(methoxycarbonyl)-2-methyl-1,4-dihydropyridin-4-yl)benzo[b]thiophene-7-carboxylicacid], in test [1], the IC50 was no less than 1 µM.
Turning to `COC(=O)C1=C(C)NC(CO)=C(C(=O)OC)C1c1csc2c(C#N)cccc12` (centres unmarked) [Example C120, Dimethyl 4-(7-cyanobenzo[b]thiophen-3-yl)-2-(hydroxymethyl)-6-methyl-1,4-dihydropyridine-3,5-dicarboxylate], the IC50 was 0.1 to 1 µM in test [1] and less than 0.1 µM in test [2].
On to `CC(=O)C1=C(C)NC(C)=C(C(=O)OC2CCOCC2)C1c1csc2ncccc12` (centres unmarked) [Example C78, Tetrahydro-2H-pyran-4-yl 5-acetyl-2,6-dimethyl-4-(thieno[2,3-b]pyridin-3-yl)-1,4-dihydropyridine-3-carboxylate], for which the IC50 in test [1] was no less than 1 µM; in test [2] it was 0.1 to 1 µM.
For `COC(=O)C1=C(C(F)(F)F)NC(C)=C(C(C)=O)C1c1csc2ncccc12` (centres unmarked) [Example C53, Methyl 5-acetyl-6-methyl-4-(thieno[2,3-b]pyridin-3-yl)-2-(trifluoromethyl)-1,4-dihydropyridine-3-carboxylate], the IC50 in test [1] was less than 0.1 µM.
For `COC(=O)C1=C(C2CC2)NC(N)=C(C(=O)OCC2CC2(F)F)C1c1csc2c(C#N)cccc12` (centres unmarked) [Example D38, 3-((2,2-Difluorocyclopropyl)methyl) 5-methyl 2-amino-4-(7-cyanobenzo[b]thiophen-3-yl)-6-cyclopropyl-1,4-dihydropyridine-3,5-dicarboxylate], the values for the IC50 in test [1] and in test [2] were 0.1 to 1 µM and less than 0.1 µM, respectively.
As for `CC(=O)C1=C(C)NC(C)=C(C(=O)OCc2ccc(F)cc2)C1c1csc2ncccc12` (centres unmarked) [Example C47, 4-Fluorobenzyl 5-acetyl-2,6-dimethyl-4-(thieno[2,3-b]pyridin-3-yl)-1,4-dihydropyridine-3-carboxylate], the IC50 was 0.1 to 1 µM in test [1] and less than 0.1 µM in test [2].
For `COC(=O)C1=C(C)NC(N)=C(C(=O)OCC2CC2(F)F)C1c1csc2c(C#N)cccc12` (centres unmarked) [Example D36, 3-((2,2-Difluorocyclopropyl)methyl) 5-methyl 2-amino-4-(7-cyanobenzo[b]thiophen-3-yl)-6-methyl-1,4-dihydropyridine-3,5-dicarboxylate], the values for the IC50 in test [1] and in test [2] were 0.1 to 1 µM and less than 0.1 µM, respectively.
As for `COC(=O)C1=C(C2CC2)NC(C)=C(C(C)=O)C1c1csc2ccc(Cl)cc12` (centres unmarked) [Example J25, Methyl 5-acetyl-4-(5-chlorobenzo[b]thiophen-3-yl)-2-cyclopropyl-6-methyl-1,4-dihydropyridine-3-carboxylate], in test [1], the IC50 was 0.1 to 1 µM.
As to `COC(=O)C1=C(C2CC2)NC(N)=C(C(=O)OCc2ccc(F)cc2)C1c1csc2c(C#N)cccc12` (centres unmarked) [Example D23, 3-(4-fluorobenzyl) 5-methyl 2-amino-4-(7-cyanobenzo[b]thiophen-3-yl)-6-cyclopropyl-1,4-dihydropyridine-3,5-dicarboxylate], the IC50 in test [1] is 0.1 to 1 µM; in test [2] it was less than 0.1 µM.
Regarding `COC(=O)C1=C(C(F)(F)F)NC(C)=C(C(C)=O)C1c1csc2ccc(Cl)cc12` (centres unmarked) [Example C38, Methyl 5-acetyl-4-(5-chlorobenzo[b]thiophen-3-yl)-6-methyl-2-(trifluoromethyl)-1,4-dihydropyridine-3-carboxylate], the IC50 in test [1] was less than 0.1 µM.
On to `COC(=O)C1=C(C)NC(N)=C(C(=O)OCC2C(C)(C)C2(F)F)C1c1csc2c(C#N)cccc12` (centres unmarked) [Example D42, 3-((2,2-Difluoro-3,3-dimethylcyclopropyl)methyl) 5-methyl 2-amino-4-(7-cyanobenzo[b]thiophen-3-yl)-6-methyl-1,4-dihydropyridine-3,5-dicarboxylate], for which the IC50 was 0.1 to 1 µM in test [1] and less than 0.1 µM in test [2].
With `COC(=O)C1=C(C2CC2)NC(C)=C(C(C)=O)C1c1csc2c(C#N)cccc12` (centres unmarked) [Example J28, Methyl 5-acetyl-4-(7-cyanobenzo[b]thiophen-3-yl)-2-cyclopropyl-6-methyl-1,4-dihydropyridine-3-carboxylate], the IC50 in test [1] and in test [2] was less than 0.1 µM in each case.
In the case of `CC(=O)C1=C(C)NC(N)=C(C(=O)OC2CCCCC2)C1c1csc2c(C#N)cccc12` (centres unmarked) [Example D29, Cyclohexyl 5-acetyl-2-amino-4-(7-cyanobenzo[b]thiophen-3-yl)-6-methyl-1,4-dihydropyridine-3-carboxylate], the figures for the IC50 in test [1] and in test [2] were 0.1 to 1 µM and less than 0.1 µM, respectively.
For `COC(=O)C1=C(C2CC2)NC(C)=C(C(C)=O)C1c1csc2c(C(=O)OC)cccc12` (centres unmarked) [Example J29, Methyl 5-acetyl-2-cyclopropyl-4-(7-(methoxycarbonyl)benzo[b]thiophen-3-yl)-6-methyl-1,4-dihydropyridine-3-carboxylate], the IC50 in test [1] was in the range of 0.1 to 1 µM.
On to `CC(=O)C1=C(C)NC(C)=C(C(C)=O)C1c1csc2c(C#N)cccc12` [Example J40, 3-(3,5-diacetyl-2,6-dimethyl-1,4-dihydropyridin-4-yl)benzo[b]thiophene-7-carbonitrile], for which the IC50 in test [1] was no less than 1 µM.
On to `CC(=O)C1=C(C)NC(C(F)(F)F)=C(C(=O)OCc2ccccc2)C1c1csc2ccccc12` (centres unmarked) [Example C45, Benzyl 5-acetyl-4-(benzo[b]thiophen-3-yl)-6-methyl-2-(trifluoromethyl)-1,4-dihydropyridine-3-carboxylate], for which the IC50 in test [1] was no less than 1 µM.
The same measure, in the same setting: as for `CC(=O)C1=C(C)NC(C)=C(C(=O)OCC2CC2)C1c1csc2ccc(Cl)cc12` (centres unmarked) [Example C32, Cyclopropylmethyl 5-acetyl-4-(5-chlorobenzo[b]thiophen-3-yl)-2,6-dimethyl-1,4-dihydropyridine-3-carboxylate], the figure is no less than 1 µM.
